Data as given in patent publication US20040220188A1, “Alkylidene pyrazolidinedione derivatives” (priority 2001, published 2004).

Tests used:
GLEPP-1 = biological target: T1, GLEPP-1 (Homo sapiens, UniProt Q16827); assay: PTP Enzyme Assay (DiFMUP substrate), GLEPP-1; type: biochemical; settings: catalytic core of human recombinant PTP, DiFMUP at Km; read-out: inhibition (IC50) with regard to GLEPP-1
T1 construct: using the catalytic core of a human recombinant PTP, as an enzyme; made in house
T1 sequence (Q16827 938-1195 limits assumed): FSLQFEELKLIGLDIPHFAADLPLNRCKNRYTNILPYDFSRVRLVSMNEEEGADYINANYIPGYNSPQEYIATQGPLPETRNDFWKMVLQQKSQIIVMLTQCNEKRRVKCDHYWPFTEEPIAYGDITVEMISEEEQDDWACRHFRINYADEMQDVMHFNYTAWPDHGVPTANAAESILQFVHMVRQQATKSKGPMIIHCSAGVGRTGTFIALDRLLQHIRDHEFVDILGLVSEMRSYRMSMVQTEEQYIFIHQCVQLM
Source text: (§1) (1) The PTP Enzyme Assay (In Vitro Assay)
(§2) The PTP Enzyme Assay aims at determining the extent of inhibition of the examined PTP (e.g. PTP1B, TC-PTP, PTP-β, DEP-1, LAR, SHP-1, SHP-2, GLEPP-1, PTP-κ, PTP-μ, VHR, hVH5) in the presence of a test compound. The inhibition is illustrated by IC50 values which denote the concentration necessary to achieve an inhibition of 50% of the given PTP.
(§3) The cloning and expression of the catalytic domain of PTPs (e.g. PTP1B, TC-PTP, PTP-β, DEP-1, LAR, SHP-1, SHP-2, GLEPP-1, PTP-κ, PTP-μ, VHR, hVH5) may be performed as described in J. Biol. Chem. 2000, 275(13), pp 9792-9796.
(§4) Assays were performed in a 96 well plate format, using the catalytic core of a human recombinant PTP, as an enzyme and 6,8-DiFluoro-4-MethylUmbelliferyl Phosphate (DiFMUP, Molecular Probes, D-6567) as a substrate at the Km value which was determined for each enzyme. Compounds to be tested were dissolved in 100% DMSO at a concentration of 2 mM. […] The reaction ran for 30 minutes at room temperature before reading the fluorescence intensity on a Perkin-Elmer Victor 2 spectrofluorimeter (excitation at 355 nm, emission at 460 nm, for 0.1 s). The percentage of inhibition relative to the fluorescence observed in the presence of solvent (5% DMSO) alone was determined. The IC50 values for inhibition were determined in triplicates on at least 3 separate occasions.

PTP1B = biological target: T2, PTP1B (Homo sapiens, UniProt P18031); assay: PTP Enzyme Assay (DiFMUP substrate), PTP1B; type: biochemical; settings: catalytic core of human recombinant PTP, DiFMUP at Km; read-out: inhibition (IC50) with regard to PTP1B
T2 construct: using the catalytic core of a human recombinant PTP, as an enzyme; made in house
T2 sequence (P18031 3-277 limits assumed): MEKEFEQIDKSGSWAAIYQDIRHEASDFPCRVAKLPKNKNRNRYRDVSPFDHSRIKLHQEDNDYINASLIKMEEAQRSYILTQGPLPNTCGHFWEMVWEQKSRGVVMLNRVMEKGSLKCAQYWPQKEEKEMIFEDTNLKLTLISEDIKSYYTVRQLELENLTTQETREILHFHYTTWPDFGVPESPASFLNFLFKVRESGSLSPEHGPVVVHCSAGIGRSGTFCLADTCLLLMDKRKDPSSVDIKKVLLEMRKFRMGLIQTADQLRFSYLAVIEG
Source text: as §1, §2, §3, §4

IC50 (GLEPP-1) [µM] | IC50 (PTP1B) [µM] | SMILES
~0.13 | 0.04 | O=C1NN(c2ccc(I)cc2)C(=O)C1=Cc1ccc(Br)o1 [Compound 25, 4-(5-Bromo-furan-2-ylmethylene)-1-(4-iodo-phenyl)-pyrazolidine-3,5-dione]
– | 0.58 | O=C1NN(c2ccc(I)cc2)C(=O)C1=Cc1cc(Br)c(O)c2ncccc12 [Compound 35]
0.047 | – | O=C1NN(c2ccc(I)cc2)C(=O)C1=Cc1ccc([N+](=O)[O-])o1 [Compound 45, 1-(4-Iodo-phenyl)-4-(5-nitro-furan-2-ylmethylene)-pyrazolidine-3,5-dione]
